Reference: PubChem BioAssay AID1329 (NMMLSC, 2008)
The source made the active and inactive calls. No rule for the calls is given here.

These compounds were tested against Induced myeloid leukemia cell differentiation protein Mcl-1 (Homo sapiens) (UniProt Q07820) (assay: modulators of Bim peptide binding to Mcl-1, dose response, biochemical, bead-based flow cytometry, multiplexed, human (AID 1329)). Details: Bim peptide-Mcl-1 binding, MCF.
Sequence of Induced myeloid leukemia cell differentiation protein Mcl-1 (Homo sapiens) (Q07820 whole entry, looked up): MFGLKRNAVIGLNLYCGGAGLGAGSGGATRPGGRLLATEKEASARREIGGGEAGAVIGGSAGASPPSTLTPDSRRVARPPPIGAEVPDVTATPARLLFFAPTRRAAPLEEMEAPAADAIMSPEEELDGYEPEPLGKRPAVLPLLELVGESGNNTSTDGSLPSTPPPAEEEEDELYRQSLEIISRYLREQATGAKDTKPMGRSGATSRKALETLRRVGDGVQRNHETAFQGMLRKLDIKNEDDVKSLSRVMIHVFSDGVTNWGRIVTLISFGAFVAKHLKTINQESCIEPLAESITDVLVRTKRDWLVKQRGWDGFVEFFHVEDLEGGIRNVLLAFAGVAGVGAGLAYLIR
In the case of `COc1cc(/C=N/Nc2nn3cnnc3c3ccccc23)ccc1O`, the EC50 was “inactive”.

Same assay, conditions: Bim peptide-Mcl-1 binding, MCF
In the case of `O=C(C1=NN[C@@H]2C(=O)N(c3cccc(F)c3)C(=O)[C@H]12)c1ccc2ccccc2n1`, the percent span was “inactive”.
For `NC(=O)c1c(NC(=O)C2CCCO2)sc2c1CCCCC2` (stereo not given), the percent span was “inactive”.
`CN(C)S(=O)(=O)N(CC(=O)Nc1ccccc1C(F)(F)F)c1ccccc1` was tested, and the percent span was “inactive”.
`O=C(Nc1ccc(N2CCOCC2)cc1)Nc1ccc2nc(-c3ccco3)c(-c3ccco3)nc2c1` was tested, and the percent span was “inactive”.
`Nc1ccc(C2=Nc3cccc4cccc(c34)N2)cc1` was tested, and the percent span was “inactive”.
For `COc1cccc(/C=N/NC(=O)c2cc3cc([N+](=O)[O-])ccc3s2)c1O`, the percent span was “inactive”.
For `Cc1c(N=C2C=CC(=O)c3ccccc32)c(=O)n(-c2ccccc2)n1C`, the percent span was “inactive”.
`COC(=O)c1ccc(/C=N/NC(=O)CC(=O)NCc2cccnc2)cc1` was tested, and the percent span was “inactive”.
For `Cc1ccc(S(=O)(=O)NC(=O)COc2ccccc2C)cc1`, the percent span was “inactive”.
In the case of `Cc1cc(C)c(C)c(S(=O)(=O)N2CCN(CC(=O)NC(=O)NCc3ccccc3)CC2)c1C`, the percent span was “inactive”.
For `C=CS(=O)(=O)c1sc(Cl)c(N2CCOCC2)c1[N+](=O)[O-]`, the percent span was “inactive”.
`COc1ccc(S(=O)(=O)NCCSc2ccc(Cl)cc2)cc1OC` was tested, and the percent span was “inactive”.
`Cc1ccc(-c2c3c([nH]c(=S)c2C#N)CCCC3)o1` was tested, and the percent span was “inactive”.
For `CCc1ccc(NC(=O)CC2NCCNC2=O)cc1` (stereo not given), the percent span was “inactive”.
For `Nc1ccc(Nc2nc(-c3ccncc3)cs2)cc1`, the percent span was “inactive”.
For `CC(C)c1ccc(/C=N/NC(=O)c2ccccc2Cl)cc1`, the percent span was “inactive”.
In the case of `Cc1cccc(-n2c(O)c(/C=N/N3CCOCC3)c(=O)[nH]c2=S)c1`, the percent span was “inactive”.
In the case of `O=[N+]([O-])c1cccc(S(=O)(=O)NCC2CCCO2)c1` (stereo not given), the percent span was “inactive”.
For `CCOc1ccccc1-n1c(=O)c2ccccc2c2ccccc2c1=O`, the percent span was “inactive”.
In the case of `CC(C)(C)OC(=O)N1CCN(C(=O)[C@H](Cc2ccc(O)cc2)n2cc(CCO)nn2)CC1`, the percent span was “inactive”.
`Cc1cc(C(=O)NCCCN(C)C)c2ccccc2n1` was tested, and the percent span was “inactive”.
In the case of `CCSc1ncc(Cl)c(C(=O)Nc2sc3c(c2C(=O)NCc2cccnc2)CCCC3)n1`, the percent span was “inactive”.
For `Cc1ccc(-c2cc(C(=O)Nc3cc(C(=O)O)ccc3C)c3ccccc3n2)cc1`, the percent span was “inactive”.
In the case of `Cc1[nH]nc(SCC(=O)NCc2ccc(F)cc2)c1[N+](=O)[O-]`, the percent span was “inactive”.
With `CCSc1nnc(NC(=O)c2c(-c3ccccc3Cl)noc2C)s1` the percent span was “inactive”.
In the case of `COc1ccc(C2C(C#N)=C(C)NC3=C2S(=O)(=O)c2ccccc23)cc1` (stereo not given), the percent span was “inactive”.
With `O=C(Cc1ccccc1)OCCNC(=O)c1cccnc1` the percent span was “inactive”.
In the case of `COc1cc(CNc2ccc3[nH]c(=O)[nH]c3c2)cc(Br)c1OCC(=O)NC(C)(C)C`, the percent span was “inactive”.
For `Cc1ccc(NC(=O)c2cc(S(=O)(=O)NCCC3=CCCCC3)ccc2F)cc1F`, the percent span was “inactive”.
`CCN(CC)CCN(C(=O)c1ccc(N2C(=O)CCC2=O)cc1)c1nc2cc3c(cc2s1)OCCO3` was tested, and the percent span was “inactive”.
`O=C(Nc1nnc(C2CC2)s1)C1Cc2ccccc2CN1S(=O)(=O)c1ccccc1F` (stereo not given) was tested, and the percent span was “inactive”.
`C/C(=N\NC(=O)Cc1cccn1C)c1ccc2ccccc2c1` was tested, and the percent span was “inactive”.
In the case of `Fc1ccc(C2=Nn3c(Cc4ccccc4F)nnc3SC2)cc1`, the percent span was “inactive”.
`CC1(C)CC(=O)C(C=NCCN2CCN(CCc3ccccc3)CC2)=C(O)C1` was tested, and the percent span was “inactive”.
In the case of `COCCN=c1scc(-c2ccco2)n1/N=C/c1ccc(O)c(O)c1O`, the percent span was “inactive”.
In the case of `Nc1ccc(-c2cn3cccnc3n2)cc1`, the percent span was “inactive”.
In the case of `O=C(Nc1ccc2nc(-c3ccco3)c(-c3ccco3)nc2c1)N1CCCCCC1`, the percent span was “inactive”.
With `COc1cccc2c(SCC(=O)N/N=C/c3ccccc3)cc(C)nc12` the percent span was “inactive”.
`Cc1ccc(NC(=O)C/C(N)=N/OC(=O)c2ccccc2)cc1` was tested, and the percent span was “inactive”.
